Test results taken from US9930888B2, “Composition” (Conopco, Inc., priority 2013, dated 2018).

Tests used:
[1] = appearance of lactam solution when added to base formulation at 5%; format: physicochemical; settings: 3% lactam in PEG-60 Hydrogenated Castor Oil; Magnetic stirring 1 hour
Source text: We ensured the lactam solutions were fully uniform through constant mechanical agitation (to avoid the settling of any unsolubilised lactam material) and added them to base using slow speed stirring to incorporate them without generating aeration.

S. epidermidis = assay: bacterial respiration of S. epidermidis suspension in microplate; format: cell-based; settings: lactam pre-blended with hydrotrope, added to remainder of composition, diluted to 11.5 ppm and 0.575 ppm; 20 hours
Procedure: Test samples were diluted in sterile water to achieve a 11.5 ppm level of lactam. Dilute solution (80 μl) was added to a S. epidermidis suspension (20 μl) of bacteria at a concentration of 8 logs in a microplate. Growth media (100 μl tryptone soya broth) was added to each well of the microplate and incubated for 20 hours. Bacterial respiration was measured every 30 minutes and the results were: • A—lactam+hydrotrope only (respiration of surviving bacteria detected ˜4-5 h) • B—lactam added directly to base formulation (which contains MPG)—no pre-mixing prior to addition (respiration of surviving bacteria detected 4-5 hrs) • C—lactam pre-mixed with hydrotrope and then added to base formulation (respiration of surviving bacteria not detected—20 hrs is max detection time) • D—hydrotrope added to base formulation (respiration of surviving bacteria detected 3-4 hrs). The example below is from data obtained when pre-blending lactams with hydrotrope before adding to the remainder of the composition, and diluting to 11.5 ppm and 0.575 ppm in sterile water in order to assess efficacy against S. epidermidis suspension Dilute solution (80 μl) was added to a S. epidermidis suspension (20 μl) of bacteria at a concentration of 8 logs in a microplate. Growth media (100 μl tryptone soya broth) was added to each well of the microplate and incubated for 20 hours. Bacterial respiration was measured every 30 minutes. Data of the test samples were then compared to un-treated cell suspensions (sterile water added instead of test samples) and percent inhibition calculated.

[2] = solubility of lactam in candidate solubilisers (magnetic stirring or ultrasonic mixing); format: physicochemical
Procedure: An Ultrasonic mixer was used to obtain determine solubility.
We used a Hielscher UP200S (200W) Sonic Tip on batches of 5-20 ml. We sonicated for up to 60 minutes.
We then tested the candidate solubilisers with 1% lactam, both with 72 hours high speed magnetic stirring (with held temperature of ˜500 in the cases of solubilisers that solidify alone at room temperature) and also 20 minutes Sonication.
In each case we incorporated the lactam powder into the solubilisers (at the levels indicated in the below table) using high speed stirring to avoid lumps from forming. Once the powder was added, the described mixing method (either continued high speed stirring or Ultrasonic mixing) commenced. In the cases of Sorbitan Oleate and Polysorbate-60, we applied initial heating to approx. 500 to ensure the solubilisers were fully liquid prior to commencing addition of the lactam. Both of these materials are non-flowing at room temperature. PEG-40 Hydrogenated Castor required initial heating to ˜350 to ensure complete fluidity prior to commencing.

[3] = as above; format: physicochemical; settings: 1% lactam in PEG-40 Hydrogenated Castor Oil; Magnetic stirring 24 hours

C=C1NC(=O)C=C1c1ccccc1 [5-methylene-4-phenyl-1H-pyrrol-2(5H)-one]
Observations when added to base @ 5% [1]: Cloudy in solution
Result (inhibition of bacterial respiration versus water control) (S. epidermidis): 82.5%
Observations of solvent solution: % of lactam solubilised ([2]; 1% lactam in 3-Methoxy-3-methyl-1-butanol, 20 minutes sonication, temp reached 60-70 C., forced): ~5% of lactam
Observations of solvent solution ([2]; 1% lactam in 3-Methoxy-3-methyl-1-butanol, Magnetic stirring 72 hours): No solubility
Observations of solvent solution ([2]; 1% lactam in Diglycerin, 20 minutes sonication, temp reached 60-70 C.): No solubility
Observations of solvent solution ([2]; 1% lactam in Diglycerin, Magnetic stirring 72 hours): No solubility
Observations of solvent solution: % of lactam solubilised ([2]; 1% lactam in Isopentyldiol, 20 minutes sonication, temp reached 60-70 C., forced): ~5% of lactam
Observations of solvent solution ([2]; 1% lactam in Isopentyldiol, Magnetic stirring 72 hours): No solubility
Observations of solvent solution: % of lactam solubilised ([2]; 1% lactam in PEG-40 Hydrogenated Castor Oil, Magnetic stirring 72 hours): ~90% of lactam
Observations of solvent solution: % of lactam solubilised ([2]; 1% lactam in PEG-40 Hydrogenated Castor Oil, Magnetic stirring 72 hours with temp. at 50 C.): ~99% of lactam
Observations of solvent solution: % of lactam solubilised ([2]; 1% lactam in PEG-60 Hydrogenated Castor Oil, 20 minutes sonication, temp reached 60-70 C.): ~25% of lactam
Observations of solvent solution: % of lactam solubilised ([2]; 1% lactam in PEG-60 Hydrogenated Castor Oil, Magnetic stirring 72 hours at 50 C.): ~25% of lactam
Observations of solvent solution: % of lactam solubilised ([2]; 1% lactam in Pentylene Glycol, 20 minutes sonication, temp reached 60-70 C.): ~5% of lactam
Observations of solvent solution: % of lactam solubilised ([2]; 1% lactam in Pentylene Glycol, Magnetic stirring 72 hours): ~5% of lactam
Observations of solvent solution: % of lactam solubilised ([2]; 1% lactam in Polysorbate 20, Magnetic stirring 24 hours): ~75% of lactam
Observations of solvent solution: % of lactam solubilised ([2]; 1% lactam in Polysorbate 20, Magnetic stirring 72 hours): ~95% of lactam
Observations of solvent solution: % of lactam solubilised ([2]; 1% lactam in Polysorbate 60, 20 minutes sonication, temp reached 60-70 C.): ~25% of lactam
Observations of solvent solution: % of lactam solubilised ([2]; 1% lactam in Polysorbate 60, Magnetic stirring 72 hours at 50 C.): ~25% of lactam
Observations of solvent solution: % of lactam solubilised ([2]; 1% lactam in Polysorbate 80, 20 minutes sonication, temp reached 60-70 C.): ~25% of lactam
Observations of solvent solution: % of lactam solubilised ([2]; 1% lactam in Polysorbate 80, Magnetic stirring 72 hours at 50 C.): ~25% of lactam
Observations of solvent solution: % of lactam solubilised ([2]; 1% lactam in Sisterna SP30-C, 20 minutes sonication, temp reached 60-70 C.): ~25% of lactam
Observations of solvent solution: % of lactam solubilised ([2]; 1% lactam in Sisterna SP30-C, Magnetic stirring 72 hours at 50 C.): ~25% of lactam
Observations of solvent solution: % of lactam solubilised ([2]; 1% lactam in Sisterna SP50-C, 20 minutes sonication, temp reached 60-70 C.): ~25% of lactam
Observations of solvent solution: % of lactam solubilised ([2]; 1% lactam in Sisterna SP50-C, Magnetic stirring 72 hours at 50 C.): ~25% of lactam
Observations of solvent solution: % of lactam solubilised ([2]; 1% lactam in Sisterna SP70-C, 20 minutes sonication, temp reached 60-70 C.): ~25% of lactam
Observations of solvent solution: % of lactam solubilised ([2]; 1% lactam in Sisterna SP70-C, Magnetic stirring 72 hours at 50 C.): ~25% of lactam
Observations of solvent solution: % of lactam solubilised ([2]; 1.5% lactam in Polysorbate 20, 20 minutes sonication, temp reached 60-70 C.): ~75% of lactam
Observations of solvent solution: % of lactam solubilised ([2]; 1.5% lactam in Polysorbate 20, 60 minutes sonication, temp reached 80-90 C., dark brown colour): ~95% of lactam
Observations of solvent solution: % of lactam solubilised ([2]; 1.5% lactam in Polysorbate 20, Magnetic stirring 48 hours): ~50% of lactam
Observations of solvent solution: % of lactam solubilised ([2]; 1.5 lactam in Polysorbate 20, Magnetic stirring, heated to 50 C. 72 hours): ~75% of lactam
Observations of solvent solution: % of lactam appeared to solubilise ([2]; 2.1% lactam in PEG-40 Hydrogenated Castor Oil, 20 minutes sonication, temp reached 80 C., small amount of 'burnt' spots visible): 90% of lactam
Observations of solvent solution ([2]; 2.1% lactam in PEG-40 Hydrogenated Castor Oil, 60 minutes sonication, temp reached 110 C., very dark colour): lactam solubilised.
Observations of solvent solution: % of lactam solubilised ([2]; 2.1% lactam in PEG-40 Hydrogenated Castor Oil, Magnetic stirring 24 hours): ~50% of lactam
Observations of solvent solution: % of lactam solubilised ([2]; 2.1% lactam in PEG-40 Hydrogenated Castor Oil, Magnetic stirring 48 hours): ~75% of lactam
Observations of solvent solution: % of lactam solubilised ([2]; 2.1% lactam in PEG-40 Hydrogenated Castor Oil, Magnetic stirring, heated to 50 C. 8 hours): ~50% of lactam
Observations of solvent solution: % of lactam solubilised ([2]; 2.1% lactam in Polysorbate 20, 20 minutes sonication, temp reached 60-70 C., dark colour formed): ~90% of lactam
Observations of solvent solution: % of lactam solubilised ([2]; 2.1% lactam in Polysorbate 20, 60 minutes sonication, temp reached 80 C.): 90% of lactam
Observations of solvent solution: % of lactam solubilised ([2]; 2.1% lactam in Polysorbate 20, 60 minutes sonication, temp reached 90-100 C.): 90% of lactam
Observations of solvent solution: % of lactam solubilised ([2]; 2.1% lactam in Polysorbate 20, Magnetic stirring 24 hours): ~50% of lactam
Observations of solvent solution: % of lactam solubilised ([2]; 2.1% lactam in Polysorbate 20, Magnetic stirring 48 hours): ~75% of lactam
Observations of solvent solution: % of lactam solubilised ([2]; 2.1% lactam in Polysorbate 20, Magnetic stirring, heated to 50 C. 8 hours): ~50% of lactam
Observations of solvent solution: % of lactam solubilised ([2]; 2.1% lactam in Polysorbate 20, Magnetic stirring, heated to 50 C. 72 hours): ~75% of lactam
Observations of solvent solution ([2]; 3% lactam in Diglycerin, Magnetic stirring 1 hour): No solubility
Observations of solvent solution: % of lactam solubilised ([2]; 3% lactam in Dipropylene Glycol, Magnetic stirring 1 hour): ~5% of lactam
Observations of solvent solution ([2]; 3% lactam in Hexylene Glycol, Magnetic stirring 1 hour): No solubility
Observations of solvent solution ([2]; 3% lactam in Isopentyldiol, Magnetic stirring 1 hour): No solubility
Observations of solvent solution ([2]; 3% lactam in MMB, Magnetic stirring 1 hour): No solubility
Observations of solvent solution: % of lactam solubilised ([2]; 3% lactam in PEG-40 Hydrogenated Castor Oil, 20 minutes sonication, temp reached 60-70 C.): ~75% of lactam
Observations of solvent solution: % of lactam solubilised ([2]; 3% lactam in PEG-40 Hydrogenated Castor Oil, 60 minutes sonication, temp reached 80 C.): ~75% of lactam
Observations of solvent solution: % of lactam solubilised ([2]; 3% lactam in PEG-40 Hydrogenated Castor Oil, Magnetic stirring 1 hour): ~25% of lactam
Observations of solvent solution: % of lactam solubilised ([2]; 3% lactam in PEG-60 Hydrogenated Castor Oil, Magnetic stirring 1 hour): ~10% of lactam
Observations of solvent solution ([2]; 3% lactam in Pentylene Glycol, Magnetic stirring 1 hour): No solubility
Observations of solvent solution: % of lactam solubilised ([2]; 3% lactam in Polysorbate 20, 20 minutes sonication, temp reached 60-70 C.): ~50% of lactam
Observations of solvent solution: % of lactam solubilised ([2]; 3% lactam in Polysorbate 20, 60 minutes sonication, temp reached 90 C.): ~60-70% of lactam
Observations of solvent solution: % of lactam solubilised ([2]; 3% lactam in Polysorbate 20, Magnetic stirring 1 hour): ~25% of lactam
Observations of solvent solution: % of lactam solubilised ([2]; 3% lactam in Polysorbate 60, Magnetic stirring 1 hour, 50 C.): ~10% of lactam
Observations of solvent solution: % of lactam solubilised ([2]; 3% lactam in Polysorbate 80, Magnetic stirring 1 hour): ~10% of lactam
Observations of solvent solution: % of lactam solubilised ([2]; 3% lactam in Sisterna SP30-C, Magnetic stirring 1 hour): ~5% of lactam
Observations of solvent solution: % of lactam solubilised ([2]; 3% lactam in Sisterna SP50-C, Magnetic stirring 1 hour): ~5% of lactam
Observations of solvent solution: % of lactam solubilised ([2]; 3% lactam in Sisterna SP70-C, Magnetic stirring 1 hour): ~5% of lactam
Observations of solvent solution: % of lactam solubilised ([2]; 3% lactam in Sorbitan Oleate, Magnetic stirring 1 hour, 50 C.): ~5% of lactam
Observations of solvent solution: % of lactam solubilised ([2]; 4.2% lactam in PEG-40 Hydrogenated Castor Oil, 20 minutes sonication, temp reached 60-70 C., very dark colour): 50% of lactam
Observations of solvent solution: % of lactam solubilised ([2]; 4.2% lactam in PEG-40 Hydrogenated Castor Oil, 60 minutes sonication, temp reached 80 C., very dark colour): 75% of lactam
Observations of solvent solution: % of lactam solubilised ([2]; 4.2% lactam in PEG-40 Hydrogenated Castor Oil, 60 minutes sonication, temp reached 110 C., very dark colour): 75% of lactam
Observations of solvent solution: % of lactam solubilised ([2]; 4.2% lactam in PEG-40 Hydrogenated Castor Oil, Magnetic stirring 24 hours): ~25% of lactam
Observations of solvent solution: % of lactam solubilised ([2]; 4.2% lactam in PEG-40 Hydrogenated Castor Oil, Magnetic stirring 48 hours): ~25% of lactam
Observations of solvent solution: % of lactam solubilised ([2]; 4.2% lactam in PEG-40 Hydrogenated Castor Oil, initially stirred for 2, 4 and 6 hours): ≤ 25% solubilised).
Observations of solvent solution: % of lactam solubilised ([2]; 4.2% lactam in Polysorbate 20, 20 minutes sonication, temp reached 60-70 C.): ~50% of lactam
Observations of solvent solution: % of lactam solubilised ([2]; 4.2% lactam in Polysorbate 20, 60 minutes sonication, temp reached 90 C.): ~60-70% of lactam
Observations of solvent solution: % of lactam solubilised ([2]; 4.2% lactam in Polysorbate 20, Magnetic stirring 24 hours): ~25% of lactam
Observations of solvent solution: % of lactam solubilised ([2]; 4.2% lactam in Polysorbate 20, Magnetic stirring 48 hours): ~25% of lactam
Observations of solvent solution: % of lactam solubilised ([2]; 4.2% lactam in Polysorbate 20, initially stirred for 2, 4 and 6 hours): ≤ 25% solubilised).
Observations of solvent solution: % of lactam solubilised ([2]; PEG-40 Hydrogenated Castor Oil table: 3% lactam, Magnetic stirring 1 hour): ~25% of lactam
Observations of solvent solution: % of lactam solubilised ([2]; Polysorbate 20 table: 3% lactam, Magnetic stirring 1 hour): ~25% of lactam
colour change of lactam solution ([2]; when samples exceeded 50 C): dark brown colour
colour change of lactam solution ([2]; when the temperature reached 65 C, Polysorbate-20 and PEG-40 Hydrogenated Castor Oil variants only): virtually opaque
Observations of solvent solution: % of lactam solubilised [3]: ~75% of lactam
